Experimental data from article PMC12067093, “Discovery and optimisation of a covalent ligand for TRIM25 and its application to targeted protein ubiquitination” (Chemical Science, 2025).

Experiments:
TRIM25 PRYSPRY [1] = target: T1, TRIM25 PRYSPRY (Homo sapiens, UniProt Q14258); test: Intact protein LCMS covalent labelling of recombinant TRIM25 PRYSPRY; assay type: binding; conditions: 4 °C, 24 h
T1 construct: His6-TEV (cleaved yes); made in house; host or cells: Sf9 insect cells (baculovirus)
Description: 1 resin (ThermoFisher Scientific, 89964), eluted in 100 mM HEPES pH 7, 500 mM NaCl,
2 300 mM Imidazole, 5% glycerol, 1 mM TCEP, and stored at -80 °C.
5 into a pET49 vector with a His6-HRV-3C (Human Rhinovirus) tag and expressed in
6 BL21 E.coli cells (Agilent Technologies; 230132), with induction at 18 °C overnight by
7 addition of isopropyl β-D-1-thiogalactopyranoside (0.5 mM). Cells were harvested by
8 centrifugation at 4000 rpm in a Beckman J6-M1 rotor for 30 min at 4 °C, the
9 supernatant was discarded and cell pellets were either immediately lysed, or stored at
10 -80°C. The protein was purified via His6-capture on HisPurTM Ni-NTA resin in buffer
11 50 mM HEPES pH 7.5, 300 mM NaCl, 0.5 mM TCEP, 20 mM imidazole, washed
12 extensively with both high salt buffer (50 mM HEPES pH 7.5, 1 M NaCl, 0.5 mM TCEP,
13 20 mM imidazole) and wash buffer (50 mM HEPES pH 7.5, 300 mM NaCl, 0.5 mM
14 TCEP, 20 mM imidazole) before elution in buffer 50 mM HEPES pH 7.5, 300 mM NaCl,
15 0.5 mM TCEP, 500 mM imidazole, and tag cleavage with HRV-3C protease. Cleaved
16 protein was further purified by ion exchange chromatography and size exclusion
17 chromatography into 20 mM HEPES pH 7.5, 150 mM NaCl, 0.5 mM TCEP, and stored
21 For the original chloroacetamide fragment screen, 0.25 μM TRIM25 PRYSPRY or
23 25 mM HEPES pH 7.5, 50 mM NaCl buffer. For intact protein liquid chromatography
24 mass spectrometry (LCMS) kinetic characterisation, 0.5 μM TRIM25 PRYSPRY was
25 used. For selectivity testing with recombinant ubiquitin system protein panel, 10 µM
27 7.5, 50 mM NaCl buffer. Samples were then diluted to 0.5 µM for TRIM25 PRYSPRY,
28 TRIM21 PRYSPRY, OTUD7B OTU, ZRANB1 OTU or 1 µM for TRIM2 NHL, UBCH5B,
29 UBC13K92A, UEV1A, OTUD4 OTU, before injection into the LCMS. For TRIM25
30 PRYSPRY mutants, and for labelling of heterobifunctional compounds, 10 µM protein
32 mM NaCl buffer, and samples were diluted to 1 µM protein before injection into the […]

TRIM25 PRYSPRY [2] = target: T1, TRIM25 PRYSPRY; test: Kinetic characterisation of covalent labelling by intact protein LCMS (kinact/KI); assay type: binding; conditions: TRIM25 PRYSPRY 0.5 μM, 4 °C
Description: 8 were characterised by kinetic reaction monitoring by intact protein LCMS. 0.5 µM
10 dilution series (final compound concentrations 100 µM (only for fragments 1 – 8),
12 and 1% DMSO-only control also used). Assays were performed in technical duplicates
Protein and compounds were incubated at 4 °C, in 25 mM HEPES
15 pH 7.5, 50 mM NaCl buffer, with each timepoint and replicate in a separate well.
18 measurement were saved with each reading and used for kinetic calculations.
19 protein masses were recorded, deconvoluted and percentage labelling values
20 extracted in the same way as described above. Percentage labelling values were
21 plotted against time in Prism 10 (GraphPad), and curves fitted separately for each
22 replicate to a one-phase association model with constraints Y0 = 0, and plateau = 100.
23 Observed rate constants (k obs, h-1, generated in Prism 10 as K values) were then
26 of two or three replicates to a straight line model with constraint Y-intercept = 0.
27 gradient of these plots (converted from µM-1h-1 to M-1s-1) gives the pseudo-first order
28 rate parameter, kinact/K I (M-1s-1), for each compound. kinact/KI values are reported as
29 mean ± SD of the slope based on a linear fit model, n = 2 or 3. For n = 2 data, errors
30 are reported as standard errors of fit, as calculated in Prism 10. For n = 3 data, errors […]

[3] = buffer; cited from earlier work
[4] = fragment screen: fragment 50 μM, TRIM25 PRYSPRY […]

T1 sequence (Q14258 435-630): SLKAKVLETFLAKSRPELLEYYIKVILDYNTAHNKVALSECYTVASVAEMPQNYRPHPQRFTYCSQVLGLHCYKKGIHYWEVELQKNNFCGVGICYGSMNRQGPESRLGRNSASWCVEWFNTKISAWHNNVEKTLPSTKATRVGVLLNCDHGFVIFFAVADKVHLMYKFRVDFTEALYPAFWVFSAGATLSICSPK

## N#Cc1cnccc1NC(=O)C1CCCN(C(=O)CCl)C1 (stereo not shown) [Compound 12]
TRIM25 PRYSPRY [1]; purified compound 50 μM, TRIM25 PRYSPRY 10 μM
  TRIM25 PRYSPRY labelling (%): 51%
TRIM25 PRYSPRY [2]; purified compounds, mean ± SD, n = 3
  kinact/KI: 0.26 ± 0.01 M⁻¹ s⁻¹

## O=C(CCl)N1CCCN(C(=O)c2ccc(Cl)cc2)CC1 [Fragment 1]
TRIM25 PRYSPRY [1]; [4]
  TRIM25 PRYSPRY labelling (%): 55%

## CCN1C(=O)C2CN(C(=O)CCl)CCN2C1=O (stereo not shown) [Fragment 2]
TRIM25 PRYSPRY [1]; [4]
  TRIM25 PRYSPRY labelling (%): 50%

## NC(=O)C1CCCCN1C(=O)CCl (stereo not shown) [Fragment 3]
TRIM25 PRYSPRY [1]; [4]
  TRIM25 PRYSPRY labelling (%): 39%
TRIM25 PRYSPRY [2]; eight timepoints across 24 h, n = 2, mean ± SE of fit
  kinact/KI: 0.13 ± 0.01 M⁻¹ s⁻¹

## C=CC(=O)Nc1cc(Nc2nccc(-c3cn(C)c4ccccc34)n2)c(OC)cc1N(C)CCN(C)C [osimertinib]
[3]
  GSH t1/2: 1.3 h
